Values of other authors in patent US8293789B2, “Method of preparing a latanoprost opthalmic solution and the resulting solution” (priority 2004, dated 2012).

Key:
[1] = tested on: patients with open angle glaucoma or ocular hypertension; conditions: for circadian / nocturnal reduction of intraocular pressure: day versus night
[2] = not given; remark: listed apart in the source

Structure (SMILES)	circadian / nocturnal reduction of intraocular pressure [1]	solubility in organic solvents (acetone, ethanol, ethyl acetate, isopropanol, methanol and octanol)	solubility in acetonitrile (acetonitrile)	solubility in water (water)	time to peak concentration in the aqueous humor ([2]; after local administration)	plasmatic mid life ([2]; in humans, sentence follows statements on latanoprost acid)	time to maximum concentration in the aqueous humor ([2]; studies on humans, following administration)	effectiveness of one sole daily application versus double daily application of other glaucoma agents ([1]; latanoprost 0.005%, patients with open angle glaucoma or ocular hypertension)	patients with a reduction in the intraocular pressure of at least 30% ([1]; patients treated with latanoprost, after 6 months of treatment)	effectiveness as hypotensive agent compared with unoprostone ([1]; patients, versus unoprostone)
CCN[C@H]1C[C@H](C)S(=O)(=O)c2sc(S(N)(=O)=O)cc21 [Dorzolamide]	less effective than latanoprost									
CC(C)OC(=O)CCC/C=C\C[C@@H]1[C@@H](CC[C@@H](O)CCc2ccccc2)[C@H](O)C[C@@H]1O [latanoprost, isopropilic ester of the prostaglandin F2α 17-phenyl-13,14dihydro]	more uniform circadian reduction	freely soluble	highly soluble	practically insoluble	2 h	17 min	approximately two	at least as effective	52%	better results
CC(C)(C)NC[C@H](O)COc1nsnc1N1CCOCC1 [timolol]	less effective during the night									
